“And” between values parts separate entries of the source, which are not always exact repeats. Equal values may be shown once. Inconclusive results and toxic doses are left out. Rule for the calls: active = survival T/C of 150% or more; inactive = T/C below 125% in these data. Peptide text beside a SMILES is read from it. * marks the point of attachment. CH2Cl = ClC*
Test system: BDF1 mice, B16 melanoma ip, median survival T/C
Assay: NCI In Vivo Anticancer Drug Screen. Data for tumor model B16 Melanoma (intraperitoneal) in B6D2F1 (BDF1) mice
Details: endpoint: median survival time, higher = longer survival
How it was run: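 In this screen, activity was judged from survival or tumor size in treated versus vehicle-treated tumor-bearing mice, reported as T/C.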

[1] = dose: 100.0 mg/kg/injection, schedule: Q04DX003 (ip), vehicle: Klucel (hydroxypropylcellulose) (HPC)
[2] = dose: 200.0 mg/kg/injection, schedule: Q04DX003 (ip), vehicle: Klucel (hydroxypropylcellulose) (HPC)
[3] = dose: 1.56 mg/kg/injection, schedule: Q01DX009 (ip), vehicle: Klucel (hydroxypropylcellulose) (HPC)
[4] = dose: 6.25 mg/kg/injection, schedule: Q01DX009 (ip), vehicle: Klucel (hydroxypropylcellulose) (HPC)
[5] = dose: 25.0 mg/kg/injection, schedule: Q01DX009 (ip), vehicle: saline with Tween-80
[6] = dose: 50.0 mg/kg/injection, schedule: Q01DX009 (ip), vehicle: saline with Tween-80
[7] = dose: 100.0 mg/kg/injection, schedule: Q01DX009 (ip), vehicle: saline with Tween-80
[8] = dose: 100.0 mg/kg/injection, schedule: Q01DX009 (ip), vehicle: Klucel (hydroxypropylcellulose) (HPC)
[9] = dose: 200.0 mg/kg/injection, schedule: Q01DX009 (ip), vehicle: Klucel (hydroxypropylcellulose) (HPC)
[10] = dose: 400.0 mg/kg/injection, schedule: Q01DX009 (ip), vehicle: Klucel (hydroxypropylcellulose) (HPC)
[11] = dose: 6.25 mg/kg/injection, schedule: Q01DX009 (ip), vehicle: saline with Tween-80
[12] = dose: 50.0 mg/kg/injection, schedule: Q01DX009 (ip), vehicle: Klucel (hydroxypropylcellulose) (HPC)
[13] = dose: 2.5 mg/kg/injection, schedule: Q01DX009 (ip), vehicle: saline
[14] = dose: 1.25 mg/kg/injection, schedule: Q01DX009 (ip), vehicle: saline
[15] = dose: 50.0 mg/kg/injection, schedule: Q01DX009 (ip), vehicle: saline
[16] = dose: 100.0 mg/kg/injection, schedule: Q04DX003 (ip), vehicle: saline with Tween-80
[17] = dose: 200.0 mg/kg/injection, schedule: Q04DX003 (ip), vehicle: saline with Tween-80

Measured: T/C

COC(=O)C1C2OC(C(Br)C2Br)C1C(=O)OC (stereo unspecified)
inactive: [1] 103 % of control | [2] 105 % of control | dose: 400.0 mg/kg/injection, schedule: Q04DX003 (ip), vehicle: Klucel (hydroxypropylcellulose) (HPC) 101 % of control

O=S(=O)(/N=C1C=C/C(=N/S(=O)(=O)c2ccccc2)C2C3C=CC(C3)C/12)c1ccccc1 (stereo unspecified)
inactive: [1] 92 % of control | [2] 86 % of control

CC(=O)NC(CC(C)C)C(=O)NC(Cc1ccccc1)C(=O)CCl (stereo not drawn) (Ac-Leu-Phe-CH2Cl; configuration not given here)
inactive: [3] 100 % of control | dose: 3.12 mg/kg/injection, schedule: Q01DX009 (ip), vehicle: Klucel (hydroxypropylcellulose) (HPC) 100 % of control | [4] 96 % of control and 97 % of control

OCc1ccc[n+](CCc2c[nH]c3ccccc23)c1
inactive: [5] 102 % of control | [6] 99 % of control | [7] 102 % of control

Cc1nc(-c2ccccc2)nc2c1CCO2
inactive: dose: 33.0 mg/kg/injection, schedule: Q01DX009 (ip), vehicle: saline with Tween-80 92 % of control | [6] 93 % of control | dose: 75.0 mg/kg/injection, schedule: Q01DX009 (ip), vehicle: saline with Tween-80 89 % of control | [7] 122 % of control

COc1ccc2c(c1)CCC1=C2CCC2(C)C(=O)OC(=O)C12 (stereo unspecified)
inactive: [8] 103 % of control | [9] 96 % of control | [10] 100 % of control

BrCC[Se]c1ccccc1
inactive: [11] 103 % of control | dose: 12.5 mg/kg/injection, schedule: Q01DX009 (ip), vehicle: saline with Tween-80 95 % of control | [5] 96 % of control | [6] 104 % of control | [7] 89 % of control

COc1ccc2ccccc2c1C1NC(=O)c2ccccc2N1 (stereo unspecified)
inactive: [12] 106 % of control | [8] 108 % of control | [9] 109 % of control | [10] 115 % of control

c1ccc2c[n+](CCCCCCCCCC[n+]3ccc4ccccc4c3)ccc2c1
inactive: [13] 88 % of control | dose: 5.0 mg/kg/injection, schedule: Q01DX009 (ip), vehicle: saline 97 % of control | dose: 10.0 mg/kg/injection, schedule: Q01DX009 (ip), vehicle: saline 97 % of control | dose: 10.0 mg/kg/injection, schedule: Q04DX003 (ip), vehicle: saline 92 % of control

CCCCNC(=O)OCC(C)(CCC)COC(N)=O (stereo unspecified)
inactive: [12] 92 % of control | [8] 92 % of control | [9] 94 % of control

CC([NH-])C[NH-].[Cl][Pt+2][Cl] (stereo unspecified)
inactive: dose: 0.31 mg/kg/injection, schedule: Q01DX009 (ip), vehicle: saline 102 % of control | dose: 0.31 mg/kg/injection, schedule: Q04DX003 (ip), vehicle: saline 89 % of control | dose: 0.62 mg/kg/injection, schedule: Q01DX009 (ip), vehicle: saline 112 % of control | dose: 0.62 mg/kg/injection, schedule: Q04DX003 (ip), vehicle: saline 100 % of control | [14] 110 % of control | dose: 1.25 mg/kg/injection, schedule: Q04DX003 (ip), vehicle: saline 107 % of control

CCc1c2cc3c(cc2cc2c4cc5c(cc4cc[n+]12)OCO5)OCO3 (tested in a mixture with another compound)
inactive: [3] 103 % of control | dose: 3.13 mg/kg/injection, schedule: Q01DX009 (ip), vehicle: Klucel (hydroxypropylcellulose) (HPC) 106 % of control | [4] 106 % of control

CCN(CC)CCNc1ccc(CO)c2sc3ccccc3c(=O)c12
inactive: dose: 0.25 mg/kg/injection, schedule: Q01DX009 (ip), vehicle: saline 100 % of control | dose: 0.5 mg/kg/injection, schedule: Q01DX009 (ip), vehicle: saline 94 % of control | dose: 1.0 mg/kg/injection, schedule: Q01DX009 (ip), vehicle: saline 89 % of control | dose: 2.0 mg/kg/injection, schedule: Q01DX009 (ip), vehicle: saline 100 % of control | dose: 2.4 mg/kg/injection, schedule: Q01DX009 (ip), vehicle: saline with Tween-80 89 % of control | dose: 4.8 mg/kg/injection, schedule: Q01DX009 (ip), vehicle: saline with Tween-80 97 % of control | dose: 9.5 mg/kg/injection, schedule: Q01DX009 (ip), vehicle: saline with Tween-80 105 % of control | dose: 19.0 mg/kg/injection, schedule: Q01DX009 (ip), vehicle: saline with Tween-80 97 % of control | dose: 38.0 mg/kg/injection, schedule: Q01DX009 (ip), vehicle: saline with Tween-80 110 % of control

CCOc1ccc([NH-])c([NH-])c1.[Cl][Pt+2][Cl]
inactive: dose: 2.5 mg/kg/injection, schedule: Q01DX009 (ip), vehicle: distilled water + Tween-80 115 % of control | dose: 5.0 mg/kg/injection, schedule: Q01DX009 (ip), vehicle: distilled water + Tween-80 115 % of control | dose: 10.0 mg/kg/injection, schedule: Q01DX009 (ip), vehicle: distilled water + Tween-80 117 % of control | dose: 20.0 mg/kg/injection, schedule: Q01DX009 (ip), vehicle: distilled water + Tween-80 102 % of control

CCCCCCCCCCCC(c1ccccc1)[N+](C)(C)C (stereo unspecified)
inactive: dose: 1.0 mg/kg/injection, schedule: Q01DX009 (ip), vehicle: saline sonified 105 % of control | dose: 2.0 mg/kg/injection, schedule: Q01DX009 (ip), vehicle: saline sonified 110 % of control | dose: 4.0 mg/kg/injection, schedule: Q01DX009 (ip), vehicle: saline sonified 105 % of control | dose: 8.0 mg/kg/injection, schedule: Q01DX009 (ip), vehicle: saline sonified 100 % of control

COC1=NCN=C2SC=C(N)N=C12
inactive: dose: 3.13 mg/kg/injection, schedule: Q01DX009 (ip), vehicle: saline 105 % of control | dose: 6.25 mg/kg/injection, schedule: Q01DX009 (ip), vehicle: saline 100 % of control and 109 % of control | dose: 12.5 mg/kg/injection, schedule: Q01DX009 (ip), vehicle: saline 96 % of control and 98 % of control | [15] 98 % of control and 100 % of control

CCCCNC1=C(N2CC2)C(=O)C(NCCCC)=C(N2CC2)C1=O
inactive: [14] 113 % of control | [13] 112 % of control

CC(=O)N(C)N=Nc1ccc(C)cc1
inactive: dose: 8.75 mg/kg/injection, schedule: Q01DX009 (ip), vehicle: Klucel (hydroxypropylcellulose) (HPC) 103 % of control | dose: 17.5 mg/kg/injection, schedule: Q01DX009 (ip), vehicle: Klucel (hydroxypropylcellulose) (HPC) 103 % of control

CCCCCCCCCCCCSC1=CC(=O)C(OC)=C(OC)C1=O
inactive: dose: 6.25 mg/kg/injection, schedule: Q01DX030 (ip), vehicle: saline with Tween-80 99 % of control | dose: 12.5 mg/kg/injection, schedule: Q01DX030 (ip), vehicle: saline with Tween-80 95 % of control | dose: 25.0 mg/kg/injection, schedule: Q01DX030 (ip), vehicle: saline with Tween-80 91 % of control

Cc1ccc(CO)cc1C
inactive: dose: 50.0 mg/kg/injection, schedule: Q04DX003 (ip), vehicle: saline with Tween-80 100 % of control | [16] 102 % of control | [17] 104 % of control

Cc1cc2cc3cc(C)c(N)cc3nc2cc1N
inactive: dose: 3.12 mg/kg/injection, schedule: Q01DX009 (ip), vehicle: saline with Tween-80 116 % of control | [11] 121 % of control | [5] 119 % of control

Nc1nc(F)nc2nc[nH]c12
inactive: dose: 5.0 mg/kg/injection, schedule: Q01DX009 (ip), vehicle: Klucel (hydroxypropylcellulose) (HPC) 88 % of control and 109 % of control | dose: 10.0 mg/kg/injection, schedule: Q01DX009 (ip), vehicle: Klucel (hydroxypropylcellulose) (HPC) 90 % of control and 118 % of control | dose: 20.0 mg/kg/injection, schedule: Q01DX009 (ip), vehicle: Klucel (hydroxypropylcellulose) (HPC) 95 % of control and 122 % of control

CC1CN1P(=O)(OCCC#N)N1CC1C (stereo unspecified)
inactive: [15] 121 % of control | dose: 100.0 mg/kg/injection, schedule: Q01DX009 (ip), vehicle: saline 115 % of control | dose: 200.0 mg/kg/injection, schedule: Q01DX009 (ip), vehicle: saline 120 % of control

CS(=N)(=O)c1ccccc1 (stereo unspecified)
inactive: [16] 89 % of control | [17] 100 % of control | dose: 400.0 mg/kg/injection, schedule: Q04DX003 (ip), vehicle: saline with Tween-80 123 % of control

Reference: PubChem BioAssay AID192 (DTP/NCI, 2004)
